The text below walks through data of patent US11944605B2, “Rapamycin analogs and uses thereof” (Janssen Pharmaceutica NV, priority 2018, dated 2024).

In data set [1] the test system is pAKT (p-Akt 1/2/3 (Ser473)) in MCF-7 cells. The data set can be described thus: AlphaLISA Ultra pAKT Assay. Format: cell-based. The settings on record: Homo sapiens, 1.5 h; MCF7 cells, 90 min. The procedure:
AlphaLISA Ultra pAKT Assay
1. MCF-7 cells in Corning 3701 plate and incubate for 20˜24 hour.
16,000˜20,000 cells will be seeded in 36 μL medium per well.
2. Change the culture medium with fresh medium and incubate for another 90 minutes.
3. […]
4. Aspirate […] by HAMILTON, 10 μL rest per well.
5. Add 10 μL 2× lysis buffer using HAMILTON; total volume in wells is 20 μL. Allow cells to shake for 30 min. Cover plate by plastic foil and store plate at −80° C. up to analysis.
6. Thaw cell lysate at RT and transfer 10 ul lysate to assay plate (Optiplate-384).
7. Add 5 μL acceptor beads into assay plate and incubation for 2 hours
8. Add 5 μL donor beads and incubation for 2 hours
9. Count the plate by EnSpire Multimode Plate Reader

Data set [2] concerns pS6K1 (p-p70 S6 Kinase (Thr389)) in MCF-7 cells. Nature of the data set: AlphaLISA Ultra pS6K1 Assay. Format: cell-based. As to conditions: Homo sapiens, 1.5 h; MCF7 cells, 90 min. A digest of the protocol:
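MCF-7 cells were seeded for 20–24 h, refed with fresh medium for 2 h, then treated with compound for 90 min at 0.5% final DMSO. Lysates were frozen at −80 °C, thawed and assayed by AlphaLISA with acceptor then donor beads, 2 h each.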

Data set [3] is described as follows: Solubility in 100 mM phosphate buffer (pH 7.4). As to conditions: pH 7.4, aqueous buffer. Format: physicochemical. The text has this:
The compound numbers correspond to the compound numbers in Table 1.

For another data set, the system named is mTORC1 over mTORC2. Nature of the data set: mTORC1 selectivity over mTORC2 at 24 hrs (Western blot based pS6K1 and pAKT assay). Format: cell-based.

≈ marks a conversion by molar mass, not a printed value. Where only a bound is given, the exact number is not on record here.

Take `CO[C@@H]1C[C@H](C[C@@H](C)[C@@H]2CC(=O)[C@H](C)/C=C(\C)[C@@H](O)[C@@H](OC)C(=O)[C@H](C)C[C@H](C)/C=C/C=C/C=C(\C)C(OCCOCCO)C[C@@H]3CC[C@@H](C)[C@@](O)(O3)C(=O)C(=O)N3CCCC[C@H]3C(=O)O2)CC[C@H]1O` (stereo partly drawn) [I-37]: the results for the IC50 in data set [1] and in data set [2] were ≥ 100 nM and 1 to 10 nM, respectively. The molecule further showed a solubility in data set [3] of 30 to 60 µM (≈ 29.6 to 59.3 µg/mL). The “mTORC1 selective @ 24 hrs” value in the data set on mTORC1 over mTORC2 was “YES”.
On to `CO[C@@H]1C[C@H](C[C@@H](C)[C@@H]2CC(=O)[C@H](C)/C=C(\C)[C@@H](O)[C@@H](OC)C(=O)[C@H](C)C[C@H](C)/C=C/C=C/C=C(\C)[C@H](OCCOCCO)C[C@@H]3CC[C@@H](C)[C@@](O)(O3)C(=O)C(=O)N3CCCC[C@H]3C(=O)O2)CC[C@H]1O` [I-19], for which the figures for the IC50 in data set [1] and in data set [2] were ≥ 100 nM and < 0.1 nM, respectively. In data set [3], this molecule returned a solubility of 30 to 60 µM (≈ 29.6 to 59.3 µg/mL). Also, the “mTORC1 selective @ 24 hrs” value in the data set on mTORC1 over mTORC2 was “YES”. Besides, the “selectivity for mTORC1 over mTORC2 as measured by the impact on pAKT” value in the data set on mTORC1 over mTORC2 (extended periods of time (e.g., 24 hours)) is recorded as “marked selectivity”.
`CO[C@@H]1C[C@H](C[C@@H](C)[C@@H]2CC(=O)[C@H](C)/C=C(\C)[C@@H](O)[C@@H](OC)C(=O)[C@H](C)C[C@H](C)/C=C/C=C/C=C(\C)C(OCCOCCOCCOCCOCCOCCO)C[C@@H]3CC[C@@H](C)[C@@](O)(O3)C(=O)C(=O)N3CCCC[C@H]3C(=O)O2)CC[C@H]1O` (stereo partly drawn) [I-33, (21E,23E,25E,26E,40R,41S,42R,43R,45R,47S,50S,51R,52R, 61S)-51,6I-dihydroxy-49-[2-[2-[2-[2-[2-(2-hydroxyethoxy)ethoxy]ethoxy]ethoxy]ethoxy]ethoxy]-50-[(1S)-2-[(1S, 3R,4R)-4-hydroxy-3-methoxy-cyclohexyl]-1-methyl-ethyl]-52-methoxy-40, 41,42,43,53,54-hexamethyl-72,73-dioxa-62-azatricyclohexatriaconta-21, 23,25(53),26(54)-tetraene-55,56,57,58,59-pentone]: the values for the IC50 in data set [1] and in data set [2] were ≥ 100 nM and 1 to 10 nM, respectively. In addition, the solubility in data set [3] was > 60 µM. In addition, the “mTORC1 selective @ 24 hrs” value in the data set with mTORC1 over mTORC2 is recorded as “YES”.
On to `CO[C@@H]1C[C@H](C[C@@H](C)[C@@H]2CC(=O)[C@H](C)/C=C(\C)[C@@H](O)[C@@H](OC)C(=O)[C@H](C)C[C@H](C)/C=C/C=C/C=C(\C)C(OCCOCCOCCO)C[C@@H]3CC[C@@H](C)[C@@](O)(O3)C(=O)C(=O)N3CCCC[C@H]3C(=O)O2)CC[C@H]1OCCO` (stereo partly drawn) [I-32, (21E,23E,25E,26E,36R,37S,38R,39R,40S,43S,45S,47R,48R,57R)-47, 57-dihydroxy-44-[2-[2-(2-hydroxyethoxy)ethoxy]ethoxy]-45-[(1R)-2-[(1S,2R, 3R)-3-(2-hydroxyethoxy)-2-methoxy-cyclohexyl]-1-methyl-ethyl]-48-methoxy-36,37,38,39,49,50-hexamethyl-68, 69-dioxa-58-azatricyclohexatriaconta-21,23,25(49),26(50)-tetraene-51,52,53,54,55-pentone], for which the results for the IC50 in data set [1] and in data set [2] were ≥ 100 nM and 0.1 to 1 nM, respectively. In data set [3], the solubility was > 60 µM. In the data set with mTORC1 over mTORC2, the “mTORC1 selective @ 24 hrs” value is given as “YES”.
As for `COCCOCCOCCOC1C[C@@H]2CC[C@@H](C)[C@@](O)(O2)C(=O)C(=O)N2CCCC[C@H]2C(=O)O[C@H]([C@H](C)C[C@@H]2CC[C@@H](O)[C@H](OC)C2)CC(=O)[C@H](C)/C=C(\C)[C@@H](O)[C@@H](OC)C(=O)[C@H](C)C[C@H](C)/C=C/C=C/C=C/1C` (stereo partly drawn) [I-27, (22E,24E,26E,27E,35R,36S,37R,38R,39S,42S,44S,46R,47R,56R)-46,56-dihydroxy-44-[(1R)-2-[(1S, 2R,3R)-3-hydroxy-2-methoxy-cyclohexyl]-1-methyl-ethyl]-47-methoxy-43-[2-[2-(2-methoxyethoxy)ethoxy]ethoxy]-35,36,37,38,48,49-hexamethyl-66,67-dioxa-57-azatricyclohexatriaconta-22, 24,26(48),27(49)-tetraene-50,51,52,53,54-pentone], the IC50 in data set [1] is ≥ 100 nM; in data set [2], 0.1 to 1 nM. In data set [3], this molecule showed a solubility of 30 to 60 µM (≈ 31.4 to 62.8 µg/mL). Also, the “mTORC1 selective @ 24 hrs” value in the data set on mTORC1 over mTORC2 was “YES”.
For `CO[C@@H]1C[C@H](C[C@@H](C)[C@@H]2CC(=O)[C@H](C)/C=C(\C)[C@@H](O)[C@@H](OC)C(=O)[C@H](C)C[C@H](C)/C=C/C=C/C=C(\C)C(OCCCO)C[C@@H]3CC[C@@H](C)[C@@](O)(O3)C(=O)C(=O)N3CCCC[C@H]3C(=O)O2)CC[C@H]1O` (stereo partly drawn) [I-34], the IC50 was ≥ 100 nM in data set [1] and 0.1 to 1 nM in data set [2]. Moreover, the solubility in data set [3] was 30 to 60 µM (≈ 28.7 to 57.5 µg/mL). The “mTORC1 selective @ 24 hrs” value in the data set on mTORC1 over mTORC2 is given as “NO”.
For `COCCOCCOC1C[C@@H]2CCC(C)C(O)(O2)C(=O)C(=O)N2CCCC[C@H]2C(=O)OC(C(C)CC2CCC(O)C(OC)C2)CC(=O)C(C)/C=C(\C)C(O)C(OC)C(=O)C(C)CC(C)/C=C/C=C/C=C/1C` (stereo partly drawn) [I-17], the IC50 is ≥ 100 nM in data set [1] and 0.1 to 1 nM in data set [2]. Moreover, the solubility in data set [3] was in the range of 30 to 60 µM (≈ 30.1 to 60.1 µg/mL). Further, the “mTORC1 selective @ 24 hrs” value in the data set with mTORC1 over mTORC2 is listed as “YES”.
Take `CO[C@@H]1C[C@H](C[C@@H](C)[C@@H]2CC(=O)[C@H](C)/C=C(\C)[C@@H](O)[C@@H](OC)C(=O)[C@H](C)C[C@H](C)/C=C/C=C/C=C(\C)C(OCCO)C[C@@H]3CC[C@@H](C)[C@@](O)(O3)C(=O)C(=O)N3CCCC[C@H]3C(=O)O2)CC[C@H]1O` (stereo partly drawn) [I-38, (21E,23E,25E,26E,30R,31S,32R,33R,35R,37S,40S,41R,42R,51S)-41, 51-dihydroxy-39-(2-hydroxyethoxy)-40-[(1S)-2-[(1S,3R,4R)-4-hydroxy-3-methoxy-cyclohexyl]-1-methyl-ethyl]-42-methoxy-30, 31,32,33,43,44-hexamethyl-62,63-dioxa-52-azatricyclohexatriaconta-21, 23,25(43),26(44)-tetraene-45,46,47,48,49-pentone]: the results for the IC50 in data set [1] and in data set [2] were ≥ 100 nM and < 0.1 nM, respectively. In data set [3], the solubility is 30 to 60 µM (≈ 28.3 to 56.7 µg/mL). In addition, in the data set with mTORC1 over mTORC2, the “mTORC1 selective @ 24 hrs” value is recorded as “NO”.
